Measured values: PMC7696671, “P2Y2 and P2X4 Receptors Mediate Ca^2+ Mobilization in DH82 Canine Macrophage Cells” (International Journal of Molecular Sciences, 2020)

Columns and labels:
Assay type in all cases: cell-based
P2Y2 receptor [1] = molecular target: T1, P2Y2 receptor (Canis lupus, UniProt A0A8I3MZ62); test: Fura-2 Ca2+ assay in DH82 cells, agonist peak response
T1 construct: gene P2RY2; endogenous receptor in DH82 canine macrophage cells

P2Y2 receptor [2] = molecular target: T1, P2Y2 receptor; test: Fura-2 Ca2+ assay in DH82 cells, inhibition of the response to […] UTP (peak)
P2Y2 receptor [3] = molecular target: T1, P2Y2 receptor; test: Fura-2 Ca2+ assay in DH82 cells, agonist peak response; blocked by AR-C118925 in Ca2+-free solution

T1 sequence (A0A8I3MZ62 1-377): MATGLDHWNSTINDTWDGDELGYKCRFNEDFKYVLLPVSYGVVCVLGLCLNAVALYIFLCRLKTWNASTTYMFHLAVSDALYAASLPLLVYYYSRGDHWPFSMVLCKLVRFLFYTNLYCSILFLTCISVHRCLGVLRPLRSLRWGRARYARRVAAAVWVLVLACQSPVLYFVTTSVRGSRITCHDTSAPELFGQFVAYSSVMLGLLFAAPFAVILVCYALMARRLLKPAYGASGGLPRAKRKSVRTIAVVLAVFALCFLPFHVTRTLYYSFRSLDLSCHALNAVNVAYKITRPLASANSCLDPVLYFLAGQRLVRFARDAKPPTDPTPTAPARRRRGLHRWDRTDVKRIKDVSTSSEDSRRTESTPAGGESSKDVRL

With `O=c1ccn([C@@H]2O[C@H](CO[P@@](=O)(O)O[P@@](=O)(O)OP(=O)(O)O)[C@@H](O)[C@H]2O)c(=O)[nH]1` [UTP] the “Peak Ca^2+ Response / pEC50” value (P2Y2 receptor [1]) was 6.16 ± 0.09 pEC50.

Molecule `Cc1ccc2c(c1)C=Cc1cc(C)ccc1C2c1cn(Cc2ccc(C(=O)Nc3nn[nH]n3)o2)c(=O)[nH]c1=S` [AR-C118925] has an IC50 (P2Y2 receptor [2]) of 6.61 ± 0.09 pIC50.

In the case of `Cc1ccc(C(=O)Nc2ccc(S(=O)(=O)O)c3cc(S(=O)(=O)O)cc(S(=O)(=O)O)c23)cc1NC(=O)c1cccc(NC(=O)Nc2cccc(C(=O)Nc3cc(C(=O)Nc4ccc(S(=O)(=O)O)c5cc(S(=O)(=O)O)cc(S(=O)(=O)O)c45)ccc3C)c2)c1` [suramin], the IC50 (P2Y2 receptor [2]) is reported as 3.70 ± 0.05 pIC50.

In the case of `Nc1ncnc2c1ncn2[C@@H]1O[C@H](COP(=O)(O)OP(=O)(O)OP(=O)(O)O)[C@@H](O)[C@H]1O` [ATP], the “Peak Ca^2+ Response / pEC50” value (P2Y2 receptor [3]) is reported as 5.88 ± 0.05 pEC50.
